# Read-outs that look alike come from different tables or passages of the source.
# How the values were obtained:
# [1] = cited from earlier work
# [2] = biological target: colchicine site of bovine brain tubulin; assay type: binding; settings: for Kd: tubulin binding constant, 25 °C, read-out: Kd
# Procedure: Inhibition of this fluorescence increase was measured and converted to K d for the test compound as described.
# A549 = assay: Cell-growth inhibition (CellTiter); assay type: cell-based, human; settings: Homo sapiens, A549, 72 h, read-out: Cell Growth Inhibition GI50 ± SE
# Procedure: (§1) Inhibition of cell growth was determined by using standard procedures. Cell lines were obtained from the NCI anticancer drug screen and maintained in DMEM medium supplemented with 10% fetal bovine serum. Growing cells were exposed to serial dilutions of each compound for 3 days. Cell growth was determined with CellTiter Assay Reagent (Promega), and growth parameters, including inhibition of growth, were measured by using the methods specified by the manufacturer.
# M14 = assay: Cell-growth inhibition (CellTiter); assay type: cell-based, human; settings: Homo sapiens, M14, 72 h, read-out: Cell Growth Inhibition GI50 ± SE
# Procedure: as §1
# PC3 = assay: Cell-growth inhibition (CellTiter); assay type: cell-based, human; settings: Homo sapiens, PC-3, 72 h, read-out: Cell Growth Inhibition GI50 ± SE
# Procedure: as §1
# bovine brain tubulin = assay: Tubulin polymerization inhibition; assay type: biochemical; settings: 10 μM tubulin; for Polymerization Inhibition (%) 3.3 μM: 3.3 μM compound; for Polymerization Inhibition (%) 33 μM: 33 μM compound
# Procedure: Inhibition of tubulin polymerization was determined as described previously. In brief, 10 μM bovine brain tubulin (PurSolutions, LLC (puresoluble.com)) was incubated under conditions strongly promoting polymerization of tubulin (1 M NaGlutamate, 0.1 M Mes (Morpholinoethanesulfonic acid), 1 mM MgCl2, 0.5 mM GTP, pH 6.9), in the absence or presence of 3.3 or 33 μM test compound, incubated for 30 min at 37 °C, then centrifuged at 100,000g for 8 min, and the top 3/4 of the supernatant removed. Protein concentration was measured, and polymerization was determined as pelletable protein lost from the supernatant.
# [3] = Experimental rotational energy barrier (thermal racemization, chiral HPLC); assay type: physicochemical
# Procedure: (aR)-6 and (aS)-6 were readily separable from one another and racemic iso -6 through the use of a polysaccharide-based chiral column (Diacel IA column) fitted to an automated medium-pressure liquid chromatography unit (Biotage Isolera Prime). Racemization was observable after heating a solution of either enantiopure (aR)- or (aS)-6 at 135 °C in xylenes over a few hours, and the rate of enantiomerization was extrapolated using the Eyring equation (ΔG ^‡ = 31.2 ± 0.3 kcal/mol). (aR)- and (aS )-iso-6 were separable in an analogous fashion using a chiral IC polysaccharide column. […] Thus, we can project that the rotational energy barrier is […] 37 kcal/mol. However, a computationally determined rotational barrier for iso -6 was 33.5 kcal/mol, which is roughly 3 kcal/mol more than that calculated for 6. One potential explanation for this notable difference in configurational stability is the greater double bond character of the methyl-bearing C^4–C^5 carbon of iso -6 in comparison to the C^5–C^6 in 6, as this would both shorten and rigidify this steric-bearing bond (see Scheme A/B for details). […] Studies have previously described differences in rotational barriers of DAAC (2) and its analogous isomer that, while less dramatic, are consistent with this trend (ΔG ^‡ = 22.1 vs 23.4 kcal/mol). […]
# IV. Experimental Profiling of Dihedral Angles
# Rotational Energy Barrier Determination. A small spatula tip (~0.2 mg) of either (aR)-6 (aka, (aR)-MT-MTC) or (aS)-6 (aka, (aS)-MT-MTC) was diluted in 2 mL o-xylenes in a large vial containing a stir bar. The solution was heated to 135 °C open to air (temperature set to 135 °C, but fluxuated between 134 and 138 °C).
# ~100 µL aliquots were extracted from solution using a syringe fitted with a long disposable needle at various time intervals and diluted into automated sample vials containing 500 µL CH2Cl2 to rapidly cool. These samples were monitored on Agilent with an analytical HPLC IA column, using 0 – 40% iPrOH in Hexanes gradient over 30 minutes at a flow rate of 0.5 mL/min, and a pressure of roughly 5 bar). Samples eluted approximately 20 minutes into run, with (aR)-6 eluting first, followed by (aS)-6. Three separate runs were carried out, two of which monitored racemization of (aS)-6, and one of which monitored racemization of (aR)- […]
# Integration of the HPLC traces were used to determine enantiomeric excess by calculating the difference between the two enantiomers and dividing that by the sum of the two enantiomers, and then multiplying that […]
# provided a slope (corresponding to kracemization), and dividing this number […] providing kenantiomerization (or kent in equation below), with units inverse seconds. A summary of data follows (Table S5), and representative chromatograms illustrated in section VI.
Structure (SMILES),Kd [2],Polymerization Inhibition (%) 3.3 μM (bovine brain tubulin),Polymerization Inhibition (%) 33 μM (bovine brain tubulin),"GI50 (A549; A549, 3 days)","GI50 (M14; M14, 3 days)","GI50 (PC3; PC3, 3 days)",further results
"COc1cc2c(c(OC)c1OC)-c1ccc(OC)c(=O)cc1CCC2 [compound 2, desacetamidocolchicine]",,,,,,,"ΔG‡ exp, rotational barrier [1]: 22.1 kcal/mol; t1/2 rt of racemization ([1]; room temperature ref 19): ~ 0.5 h"
"COc1ccc(-c2ccc(OC)c(=O)cc2)c(OC)c1OC [compound 3, 2-methoxy-5-(2,3,4-trimethoxyphenyl)-2,4,6-cycloheptatrien-1-one, reference compound]",3200 nM,100%,100%,,,,GI50 (A549): 30 ± 1 nM; GI50 (M14): 30 ± 7 nM; GI50 (PC3): 30 ± 5 nM
"COc1ccc(-c2ccc(OC)c(=O)cc2C)c(OC)c1OC [compound 4, 2-Methoxy-6-methyl-5-(2,3,4-trimethoxyphenyl)cyclohepta-2,4,6-trien-1-one]",20000 nM,0%,100%,300 ± 10 nM,250 ± 25 nM,190 ± 60 nM,binding constant fold less potent than 3 [2]: 5–30 fold
"COc1cc(C)c(-c2ccc(OC)c(=O)cc2)c(OC)c1OC [compound 5, 2-Methoxy-5-(2,3,4-trimethoxy-6-methylphenyl)cyclohepta-2,4,6-trien-1-one]",14000 nM,0%,100%,300 ± 10 nM,300 ± 10 nM,220 ± 40 nM,binding constant fold less potent than 3 [2]: 5–30 fold
"COc1cc(C)c(-c2ccc(OC)c(=O)cc2C)c(OC)c1OC [compound 6, 2-Methoxy-6-methyl-5-(2,3,4-trimethoxy-6-methylphenyl)cyclohepta-2,4,6-trien-1-one]",,,,,,,"ΔG‡ of enantiomerization, experimental ([3]; 135 °C in xylenes, Eyring equation): 31.2 ± 0.3 kcal/mol"
COc1ccc(-c2ccc(=O)c(OC)cc2C)c(OC)c1OC [iso-4],230000 nM,0%,0%,> 3000 nM,> 3000 nM,> 3000 nM,
"COc1cc(C)c(-c2ccc(=O)c(OC)cc2C)c(OC)c1OC [iso-6, 2-Methoxy-4-methyl-5-(2,3,4-trimethoxy-6-methylphenyl)cyclohepta-2,4,6-trien-1-one]",,,,,,,"racemization on heating ([3]; 145 °C for 10 h): no racemization was observed; projected rotational energy barrier ([3]; from absence of racemization at 145 °C, 10 h): 37 kcal/mol"

# Source: paper PMC12150326 (The Journal of Organic Chemistry, 2025)
